# Key:
# SHIP2 = target: T1, SHIP2 (Homo sapiens, UniProt O15357); experiment: FP assay of SHIP2 enzymatic activity; assay type: biochemical
# T1 sequence (O15357 1-1258): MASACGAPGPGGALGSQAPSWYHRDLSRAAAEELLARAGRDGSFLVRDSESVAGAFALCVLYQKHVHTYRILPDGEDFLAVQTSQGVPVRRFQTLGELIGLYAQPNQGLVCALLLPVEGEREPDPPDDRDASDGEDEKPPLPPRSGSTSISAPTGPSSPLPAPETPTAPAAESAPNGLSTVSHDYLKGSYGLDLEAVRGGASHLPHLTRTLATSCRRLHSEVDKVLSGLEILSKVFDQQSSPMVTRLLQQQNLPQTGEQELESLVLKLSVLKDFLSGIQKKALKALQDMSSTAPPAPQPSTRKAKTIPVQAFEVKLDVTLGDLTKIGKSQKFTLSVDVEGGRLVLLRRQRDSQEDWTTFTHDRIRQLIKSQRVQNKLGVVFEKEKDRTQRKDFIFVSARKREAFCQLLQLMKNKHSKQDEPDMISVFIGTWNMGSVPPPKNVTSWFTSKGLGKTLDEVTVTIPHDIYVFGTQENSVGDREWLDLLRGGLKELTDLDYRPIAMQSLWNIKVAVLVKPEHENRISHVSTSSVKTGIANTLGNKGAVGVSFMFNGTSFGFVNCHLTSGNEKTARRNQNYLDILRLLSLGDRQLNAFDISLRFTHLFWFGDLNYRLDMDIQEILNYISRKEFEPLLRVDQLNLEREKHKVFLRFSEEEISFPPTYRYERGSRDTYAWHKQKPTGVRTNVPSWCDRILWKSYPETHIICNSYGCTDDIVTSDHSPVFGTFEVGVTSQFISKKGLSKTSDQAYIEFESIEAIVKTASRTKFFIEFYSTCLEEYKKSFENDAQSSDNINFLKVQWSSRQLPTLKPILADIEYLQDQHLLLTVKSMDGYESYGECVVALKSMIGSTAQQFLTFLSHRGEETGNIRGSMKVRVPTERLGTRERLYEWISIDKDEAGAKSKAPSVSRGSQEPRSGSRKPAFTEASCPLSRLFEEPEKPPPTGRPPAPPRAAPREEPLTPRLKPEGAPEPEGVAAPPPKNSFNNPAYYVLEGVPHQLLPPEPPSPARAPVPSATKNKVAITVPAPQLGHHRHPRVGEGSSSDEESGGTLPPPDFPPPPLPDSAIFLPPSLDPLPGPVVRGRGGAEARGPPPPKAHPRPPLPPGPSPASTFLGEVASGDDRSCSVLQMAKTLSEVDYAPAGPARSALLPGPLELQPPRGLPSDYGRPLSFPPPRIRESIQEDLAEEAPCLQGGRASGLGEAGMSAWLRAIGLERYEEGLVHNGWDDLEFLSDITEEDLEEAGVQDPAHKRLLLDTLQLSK
# Excerpt: No Compound—FP assay conducted with purified SHIP1 or SHIP2 as indicated in the absence of inhibitor. No Enzyme—FP assay conducted in SHIP buffer and fluorescent substrate in the absence of enzyme.
# Thus far, none of the inhibitors have been identified as selective for SHIP1 over SHIP2. The majority of SHIP inhibitors identified show selectivity for 5′ inositol phosphatases and thus might be used to target SHIP1 or SHIP2 activity.
# Assay of SHIP1 enzymatic activity: A fluorescent polarization (FP) assay that detects the 5′-inositol phosphatase activity of SHIP1 was developed based on a previously established protocol [Drees B E, et al., Comb Chem High Throughput Screen (2003) 6(4):321-330] and was obtained from Echelon Biosciences (Salt Lake City, USA). Modifications of the protocol included the application of SHIP1 in the assay and an increase in the concentration of MgCl2 to […] to maximize the activity of SHIP1 in this assay. Each enzymatic reaction was performed in a 96 well working plate and added in the following order and concentration: Recombinant SHIP1 (0.1 μg) in PBS+20 mM MgCl2, 100 μM of each individual compound from the NCI Diversity Set and then PI(3,4,5)P3 substrate diluted 1:10 in H2O. The enzymatic reaction was incubated for 30 min at room temperature. The detector, reaction mixture and probe were then combined according to the SHIP2 protocol. […]
# PTEN = target: T2, PTEN (Homo sapiens, UniProt P60484); experiment: Malachite Green phosphate release assay, PTEN; assay type: biochemical
# T2 construct: purchased
# T2 sequence (P60484 whole entry, species assumed): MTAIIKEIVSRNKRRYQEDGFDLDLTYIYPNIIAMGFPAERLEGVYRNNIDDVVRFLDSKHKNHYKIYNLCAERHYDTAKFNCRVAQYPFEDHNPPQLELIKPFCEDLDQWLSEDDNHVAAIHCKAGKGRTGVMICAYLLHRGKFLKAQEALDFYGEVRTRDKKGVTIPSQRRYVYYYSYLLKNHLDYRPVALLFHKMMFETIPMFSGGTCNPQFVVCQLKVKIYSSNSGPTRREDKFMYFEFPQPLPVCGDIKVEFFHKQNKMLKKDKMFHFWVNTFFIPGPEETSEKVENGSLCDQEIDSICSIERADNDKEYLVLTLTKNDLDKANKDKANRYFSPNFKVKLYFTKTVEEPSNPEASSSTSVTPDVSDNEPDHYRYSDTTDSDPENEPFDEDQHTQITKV
# Experimental: The absorbance measurements shown correspond to liberated PO4 generated by recombinant PTEN (1.44 μg) when incubated with its substrate, PI (3,4,5)P3, as detected by a Malachite Green reporter.
# (A) Purified, recombinant SHIP1 has significant activity as determined by the reduction in mean polarization units (mPu) in an FP assay designed for 5′-inositol phosphatases (Echelon Biosciences, Salt Lake City, Utah.). Note that no significant reduction in mP is obtained when the enzyme buffer without SHIP1 is added to the FP assay (Buffer) or when purified SHIP1 is assayed in the absence of its PI(3,4,5)P3 substrate (SHIP1 only).
# Assay of SHIP1 enzymatic activity: A fluorescent polarization (FP) assay that detects the 5′-inositol phosphatase activity of SHIP1 was developed based on a previously established protocol [Drees B E, et al., Comb Chem High Throughput Screen (2003) 6(4):321-330] and was obtained from Echelon Biosciences (Salt Lake City, USA). Modifications of the protocol included the application of SHIP1 in the assay and an increase in the concentration of MgCl2 to […] to maximize the activity of SHIP1 in this assay. […]
SMILES,inhibition of SHIP2 enzymatic activity (SHIP2),"inhibition of PTEN (PTEN; at 100 μM, Malachite Green reporter, recombinant PTEN 1.44 μg)","inhibition of PTEN activity (PTEN; at 1 mM, Malachite Green assay)"
"OC(c1cc(-c2ccccc2)nc2c1ccc1ccccc12)C1CCCCN1 (stereo not shown) [NSC13480, (2-phenylbenzo[h]quinolin-4-yl)-piperidin-2-ylmethanol]",inhibit both SHIP1 and SHIP2 enzymatic activity,no significant inhibition,–
"CC(C)CCC[C@@H](C)[C@H]1CC[C@H]2[C@@H]3CC[C@H]4C[C@H](N)CC[C@]4(C)[C@H]3CC[C@]12C [NSC23922, (3R,5S,8R,9S,10S,13R,14S,17R)-10,13-dimethyl-17-[(2R)-6-methylheptan-2-yl]-2,3,4,5,6,7,8,9,11,12,14,15,16,17-tetradecahydro-1H-cyclopenta[a]phenanthren-3-amine]",inhibit both SHIP1 and SHIP2 enzymatic activity,–,fails to inhibit

# From patent publication US9006221B2, “Method of modulating ship activity” (H. Lee Moffitt Cancer Center and Reserach Institute, Inc., priority 2008, dated 2015)
